Values quoted from earlier work as cited in patent publication US20200360292A1, “OIL-SOLUBLE DRUG CONTAINING COMPOSITIONS AND METHODS OF USE THEREOF” (priority 2019, published 2020).

Conditions: inhalation

Compound: CCCCCc1cc(O)c2c(c1)OC(C)(C)[C@@H]1CCC(C)=C[C@@H]21 [THC, Δ9-tetrahydrocannabinol]
- Time to maximum plasma concentration: within minutes
